{
  "source": "patent US11420181B2",
  "about": "“Methods for suppression of ammonia formation from staphylococcus-xylosus and staphylococcus-cohnii” (Dow Global Technologies LLC, priority 2016, dated 2022)",
  "key": {"[1]": {"tested_on": "Staphylococcus-cohnii", "assay": "Lab headspace ammonia test on ground straw with synthetic poultry urine, Example 3", "assay_type": "cell-based", "protocol": "(§1) Synthetic Poultry Urine Preparation. In these Examples, synthetic urine was prepared as follows for each 100 g of synthetic poultry urine needed. The amounts can be scaled up or down as needed. The following components were added to a sterilized bottle: Urea (USP Grade): 0.43 g, Ammonia: 0.46 g, K3PO4 (USP grade): 6.8 g, Milli-Q water: 83.52 g. The bottle was capped and placed on a bottle roller at ambient temperature for 1 to 3 hours. The pH of the solution was measured to confirm the pH is between 13 and 14.\n(§2) Bacteria Preparation. In these Examples, the Staphylococcus-cohnii and the Staphylococcus-cohnii/Staphylococcus-xylosus bacteria strains used were environmental isolates from poultry manure and cat litter respectively. As used herein, “Staphylococcus-cohnii/Staphylococcus-xylosus” refers to a bacteria strain that is an environmental isolate from cat feces that through DNA sequencing has been identified to be genetically similar to both Staphylococcus-cohnii and Staphylococcus-xylosus. The identifications were determined by DNA sequencing at an external lab with genus confidence level.\n(§3) The bacteria strains were isolated on a sterile tryptic soy agar plate, grown for 2 days in a 30 degrees ° C. incubator and stored in a refrigerator. A fresh plate was prepared every 2 weeks.\nThe bacteria were grown the day before the start of the experiments by taking a loopful of the bacteria from the agar plate with a 10 uL loop and immersing it in 10 mL sterile tryptic soy broth filling half of the container. All bacteria used in the Examples are aerobic and therefore need air on top of the growth medium. The vials were incubated at 30 degrees C. in a shaking incubator at 100 rpm for 24 hours. The count of the bacteria in the growth media was determined by the serial dilutions method, where 10 serial dilutions of the growth medium in sterile Physiological Buffered Saline (PBS) solution are performed with 10× dilution each time. Each dilution was plated twice using 100 μL of growth media for each plate. The numbers of colonies were counted on the dilution plate that had between 30 and 300 colony forming units (CFU) on it. The number of colony forming units in the original growth media was then determined by back-calculating the number of dilutions. […] All pipettes, containers, tips, spoons etc. equipment used for these experiments were sterile in order to prevent contamination with other bacteria. Litters, treatments and chemicals used for preparing synthetic urine were used as-is, without sterilization.\nPreparation of grinded straw bedding. A sterilized lab blender was loaded with straw and grinded at pulsed, high setting for 15-45 seconds. Then a new batch of straw was loaded to the blender. […]"}, "[2]": {"tested_on": "Staphylococcus-xylosus/Staphylococcus-cohnii", "assay": "Lab headspace ammonia test on ground straw with synthetic poultry urine, Example 4", "assay_type": "cell-based", "protocol": "as §1, §2, §3\nThe bacteria were grown the day before the start of the experiments by taking a loopful of the bacteria from the agar plate with a 10 uL loop and immersing it in 10 mL sterile tryptic soy broth filling half of the container. All bacteria used in the Examples are aerobic and therefore need air on top of the growth medium. […] The count of the bacteria in the growth media was determined by the serial dilutions method, where 10 serial dilutions of the growth medium in sterile Physiological Buffered Saline (PBS) solution are performed with 10× dilution each time. […] The numbers of colonies were counted on the dilution plate that had between 30 and 300 colony forming units (CFU) on it. The number of colony forming units in the original growth media was then determined by back-calculating the number of dilutions. […]"}, "[3]": {"assay": "Barrel test experiments on used broiler litter, Examples 5-8", "details": "used rice hull litter in tubs, vs untreated control", "text": "Used litter (rice hulls which may also contain poultry manure, moisture, feed residue and/or feathers) were acquired from a commercial broiler chicken farm and transported in plastic barrels. Twenty three kilograms of litter were weighed into 0.4 m^2 plastic tubs to cover the tubs to a depth of approximately 10 cm. The tubs were stored uncovered in a poultry rearing facility, and environmental conditions were controlled to mimic the conditions that would be experienced in a commercial broiler house (temperature around 32° C.).\nTubs were treated with NaHSO4 at a dose equivalent to 1 wt % Ammonia was then measured for 35 days.\nTubs were treated in two steps. A dose equivalent to 1 wt % of NaHSO4 as Acidifier was added to the tubs. After 24 hours, a dose equivalent to 3.2 wt % of Na2EDTA was added and dispersed. Ammonia was then measured for 35 days.\nTubs were treated in two steps. A dose equivalent to 1 wt % of NaHSO4 as Acidifier was added to the tubs. After 24 hours, a dose equivalent to 3.2 wt % of K2EDTA was added as an aqueous solution. Ammonia was then measured for 35 days.\nTubs were treated in two steps. A dose equivalent to 1.23 wt % of EDTA Acid was added to the tubs. After 24 hours, a dose equivalent to 3.2 wt % of Na2EDTA was added and dispersed. Ammonia was then measured for 35 days."}, "[4]": {"details": "1 day after treatment, vs untreated control"}, "[5]": {"details": "3 days after treatment, untreated control 200+ ppm (above tube limit)"}},
  "data": [
    {"molecule": "O=C(O)CN(CCN(CC(=O)O)CC(=O)O)CC(=O)O.[K].[K]", "note": "[2.5% K2EDTA sprayed on top, dipotassium ethylenediaminetetraacetic acid]", "values": [
      {"measurement": "% improvement in headspace ammonia", "setting": "[1]; [4]", "result": 64, "unit": "%"},
      {"measurement": "% improvement in headspace ammonia", "setting": "[1]; [5]", "result": "5+ %"},
      {"measurement": "% improvement in headspace ammonia", "setting": "[2]; [4]", "result": 57, "unit": "%"}
    ]},
    {"molecule": "O=C(O)CN(CCN(CC(=O)O)CC(=O)O)CC(=O)O.[K].[K]", "note": "[2.5% K2EDTA, dipotassium ethylenediaminetetraacetic acid]", "values": [
      {"measurement": "% improvement in headspace ammonia", "setting": "[1]; [4]", "result": 64, "unit": "%"},
      {"measurement": "% improvement in headspace ammonia", "setting": "[1]; [5]", "result": "8+ %"},
      {"measurement": "% improvement in headspace ammonia", "setting": "[2]; [4]", "result": 73, "unit": "%"},
      {"measurement": "% improvement in headspace ammonia", "setting": "[2]; [5]", "result": "12+ %"}
    ]},
    {"molecule": "O=S(=O)([O-])O.[Na+]", "note": "[1 wt % NaHSO4, NaHSO4]", "values": [
      {"measurement": "% improvement in headspace ammonia", "setting": "[3]; 3 days after treatment", "result": 92, "unit": "%"},
      {"measurement": "% improvement in headspace ammonia", "setting": "[3]; 7 days after treatment", "result": 74, "unit": "%"},
      {"measurement": "% improvement in headspace ammonia", "setting": "[3]; 14 days after treatment", "result": 37, "unit": "%"},
      {"measurement": "% improvement in headspace ammonia", "setting": "[3]; 21 days after treatment", "result": "−37", "unit": "%"},
      {"measurement": "% improvement in headspace ammonia", "setting": "[3]; 28 days after treatment", "result": "−16", "unit": "%"}
    ]}
  ]
}
